# Literature values, collected in paper PMC6650409, “Modeling the binding of diverse ligands within the Ah receptor ligand binding domain” (Scientific Reports, 2019).
# Experiments:
# mAhR = target: T1, mAhR (Mus musculus, UniProt P30561); set-up: method as in PMID 21981577; conditions: in words; cited from earlier work
# T1 construct: made in house; host or cells: in vitro, Promega TNT Quick coupled transcription/translation rabbit reticulocyte lysate
# T1 sequence (P30561 10-848): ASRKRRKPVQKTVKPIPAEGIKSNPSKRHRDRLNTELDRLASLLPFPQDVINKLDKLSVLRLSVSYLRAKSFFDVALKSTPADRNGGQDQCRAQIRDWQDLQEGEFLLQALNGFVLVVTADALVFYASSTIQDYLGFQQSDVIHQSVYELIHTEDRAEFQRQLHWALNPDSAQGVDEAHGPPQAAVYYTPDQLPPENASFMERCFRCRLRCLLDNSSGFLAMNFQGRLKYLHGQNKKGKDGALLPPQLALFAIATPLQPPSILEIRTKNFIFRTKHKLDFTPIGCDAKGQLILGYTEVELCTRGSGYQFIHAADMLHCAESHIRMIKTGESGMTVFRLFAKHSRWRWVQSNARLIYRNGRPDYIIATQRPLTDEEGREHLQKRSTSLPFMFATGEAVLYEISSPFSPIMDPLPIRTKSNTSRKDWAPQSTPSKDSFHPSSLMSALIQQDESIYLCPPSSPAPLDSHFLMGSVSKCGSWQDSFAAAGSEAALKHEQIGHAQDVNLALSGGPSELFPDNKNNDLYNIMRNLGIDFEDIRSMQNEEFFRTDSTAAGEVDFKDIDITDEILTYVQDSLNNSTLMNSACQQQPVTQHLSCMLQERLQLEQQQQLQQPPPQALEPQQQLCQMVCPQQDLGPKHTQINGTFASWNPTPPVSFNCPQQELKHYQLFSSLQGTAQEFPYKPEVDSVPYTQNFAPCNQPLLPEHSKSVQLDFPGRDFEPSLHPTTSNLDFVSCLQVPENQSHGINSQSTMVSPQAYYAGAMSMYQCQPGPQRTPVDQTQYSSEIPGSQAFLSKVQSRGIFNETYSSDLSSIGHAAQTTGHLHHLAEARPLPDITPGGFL
# AhR = test system: AhR; set-up: method as in PMID 21981577; conditions: in words; cited from earlier work
# [1] = test system: zebrafish AhR1a (zfAhR1a); conditions: cited from earlier work
SMILES,displacement of [3H]TCDD specific binding to the mAhR (mAhR),AhR agonist activity (AhR),ligand binding to zfAhR1a [1]
O=[N+]([O-])c1cc(C(F)(F)F)ccc1NCc1ccsc1 [THS-017],could competitively displace,acted as AhR agonists,
O=[N+]([O-])c1cc(C(F)(F)F)ccc1NCc1ccco1 [THS-020],could competitively displace,acted as AhR agonists,
"Cc1oncc1C(=O)Nc1ccc(C(F)(F)F)cc1 [LEFL, Leflunomide]",,,could still bind and be activated
